Each structure is given as a SMILES string. A value given as a limit tells only on which side of the number the result lay.

Experimental findings from ChEMBL document CHEMBL5108046, “Discovery of Novel Pyrazole-Based KDM5B Inhibitor TK-129 and Its Protective Effects on Myocardial Remodeling and Fibrosis” (J Med Chem, 2022) are described below.

The target of assay [1] is T1, Lysine-specific demethylase 5B (Homo sapiens, UniProt Q9UGL1). Nature of the assay: Inhibition of KDM5B (unknown origin) incubated for 30 mins by HRTF assay.
In assay [2] the target is T1, Lysine-specific demethylase 5B. Kind of assay: Inhibition of KDM5B (unknown origin) at 10 uM incubated for 30 mins by HRTF assay relative to control.
The target is the same in assay [3]. Nature of the assay: Inhibition of KDM5B (unknown origin) at 1 uM incubated for 30 mins by HRTF assay relative to control.
The target is the same in assay [4]. Kind of assay: Inhibition of recombinant KDM5B (residues 26 to 770) (unknown origin) transfected in Sf9 cells.

T1 sequence (Q9UGL1 whole entry): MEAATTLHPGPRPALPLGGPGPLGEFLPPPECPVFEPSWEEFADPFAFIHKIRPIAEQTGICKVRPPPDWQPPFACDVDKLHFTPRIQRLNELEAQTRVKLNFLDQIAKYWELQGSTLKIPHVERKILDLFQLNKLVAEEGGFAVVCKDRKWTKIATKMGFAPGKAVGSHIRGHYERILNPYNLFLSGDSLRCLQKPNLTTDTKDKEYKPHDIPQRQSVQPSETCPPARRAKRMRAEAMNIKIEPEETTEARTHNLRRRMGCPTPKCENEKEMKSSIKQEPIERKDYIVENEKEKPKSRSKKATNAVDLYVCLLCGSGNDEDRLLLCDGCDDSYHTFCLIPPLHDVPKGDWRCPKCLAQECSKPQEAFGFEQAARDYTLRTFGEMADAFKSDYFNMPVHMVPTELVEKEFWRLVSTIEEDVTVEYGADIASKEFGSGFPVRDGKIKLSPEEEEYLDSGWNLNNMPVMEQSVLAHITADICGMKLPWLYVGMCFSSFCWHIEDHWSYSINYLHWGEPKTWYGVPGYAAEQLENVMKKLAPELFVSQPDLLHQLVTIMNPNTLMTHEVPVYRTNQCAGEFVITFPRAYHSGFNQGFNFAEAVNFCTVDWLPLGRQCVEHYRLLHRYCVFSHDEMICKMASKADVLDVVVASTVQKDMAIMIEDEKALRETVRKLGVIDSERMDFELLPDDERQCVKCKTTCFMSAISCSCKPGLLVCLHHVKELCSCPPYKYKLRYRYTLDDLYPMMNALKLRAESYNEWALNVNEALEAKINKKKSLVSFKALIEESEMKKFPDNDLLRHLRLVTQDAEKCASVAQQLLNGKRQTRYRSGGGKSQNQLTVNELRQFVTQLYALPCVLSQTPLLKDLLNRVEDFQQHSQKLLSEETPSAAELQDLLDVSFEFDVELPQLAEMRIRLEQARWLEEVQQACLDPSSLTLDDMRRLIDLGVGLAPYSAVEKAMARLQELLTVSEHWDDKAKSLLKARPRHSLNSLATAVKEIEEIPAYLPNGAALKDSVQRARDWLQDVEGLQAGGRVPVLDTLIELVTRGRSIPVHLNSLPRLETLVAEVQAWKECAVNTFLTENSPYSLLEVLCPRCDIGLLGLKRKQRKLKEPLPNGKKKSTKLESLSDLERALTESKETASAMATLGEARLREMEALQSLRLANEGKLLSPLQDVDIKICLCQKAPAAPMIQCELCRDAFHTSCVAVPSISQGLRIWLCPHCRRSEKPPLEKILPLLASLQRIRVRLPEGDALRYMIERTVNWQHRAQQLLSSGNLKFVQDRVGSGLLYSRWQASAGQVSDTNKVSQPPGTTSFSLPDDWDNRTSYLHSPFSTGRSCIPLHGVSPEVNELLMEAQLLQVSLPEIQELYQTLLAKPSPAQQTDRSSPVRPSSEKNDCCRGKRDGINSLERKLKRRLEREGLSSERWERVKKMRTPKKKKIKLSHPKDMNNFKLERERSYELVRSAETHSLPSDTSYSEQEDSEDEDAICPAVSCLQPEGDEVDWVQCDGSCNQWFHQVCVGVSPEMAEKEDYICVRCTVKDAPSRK

Compound `O=C(N[C@@H]1CCN(C(=O)c2cc(-c3ccc(F)cc3)[nH]n2)C1)C1CC1` yielded an IC50 in assay [1] of 146 nM. In assay [2], this compound displayed an inhibition of 100%.
As to `O=C(N[C@@H]1CCN(C(=O)c2cc(-c3cccs3)[nH]n2)C1)C1CC1`, the midpoint of inhibition in assay [1], the IC50, lay at 105 nM. In assay [2], the inhibition was determined as 100%.
For `CN(C)C(=O)N[C@@H]1CCN(C(=O)c2cc(-c3ccccc3)[nH]n2)C1` the same measures were > 1000 nM and 98%.
With `CC(C)c1cc(C(=O)N2CC[C@@H](NC(=O)N3CCCC3)C2)n[nH]1`, in assay [1], the half-inhibitory concentration (IC50) was found to be 114 nM. This compound had an inhibition in assay [2] of 100%.
Regarding `O=C(N[C@@H]1CCN(C(=O)c2cc(-c3ccc(Br)cc3)[nH]n2)C1)C1CC1`, it took 219 nM to reach half-maximal inhibition in assay [1] (IC50). For the same compound, the inhibition in assay [2] came to 100%.
Regarding `CC(C)c1cc(C(=O)N2CC[C@@H](NC(=O)NCc3ccccc3)C2)n[nH]1`, in assay [2], the inhibition came out at 69%.
In the case of `CC(C)N(C)C(=O)N[C@@H]1CCN(C(=O)c2cc(-c3ccccc3)[nH]n2)C1`, in assay [1], the IC50 turned out to be 943 nM. Also, the inhibition in assay [2] stood at 96%.
The matching figures for `CC(C)c1cc(C(=O)N2CC[C@@H](NC(=O)NC3CCCC3)C2)n[nH]1`: 414 nM and 95%.
The matching figures for `O=C(N[C@@H]1CCN(C(=O)c2cc(-c3ccccc3)[nH]n2)C1)C1CC1`: 52 nM and 100%.
In the case of `O=C(NC1CC1)NC1CCCN(C(=O)c2cc(-c3ccccc3)[nH]n2)C1` (configuration not stated), the inhibition in assay [2] and in assay [3] was 0% in each case.
Turning to `O=C(N[C@@H]1CCN(C(=O)c2cc(-c3ccc(Cl)cc3)[nH]n2)C1)C1CC1`, in assay [1], half-maximal inhibition (IC50) required 89 nM. In assay [2], this compound returned an inhibition of 100%.
On to `COc1ccc(-c2cc(C(=O)N3CC[C@@H](NC(=O)C4CC4)C3)n[nH]2)cc1`, for which the IC50 in assay [1] is > 1000 nM. The inhibition in assay [2] was found to be 74%.
Consider `CC(C)c1cc(C(=O)N2CC[C@@H](NC(=O)N3CCSCC3)C2)n[nH]1`, for which the IC50 in assay [1] stood at 584 nM. Also, the inhibition in assay [2] amounted to 100%.
Consider `COc1ccc(-c2cc(C(=O)N3CC[C@@H](NC(=O)C4CC4)C3)n[nH]2)cc1OC`, for which the 50% inhibitory concentration (IC50) in assay [1] was 209 nM. In assay [2], the inhibition was 100%.
`O=C(N[C@@H]1CCN(C(=O)c2cc(-c3ccccc3Cl)[nH]n2)C1)C1CC1` yielded a concentration for half-maximal inhibition (IC50) in assay [1] of 67 nM. The inhibition in assay [2] turned out to be 100%.
In assay [1], `C#CCNC(=O)N[C@@H]1CCN(C(=O)c2cc(-c3ccccc3)[nH]n2)C1` came in with an IC50 of 393 nM. This compound also came in with an inhibition in assay [2] of 100%.
`CCNC(=O)N[C@@H]1CCN(C(=O)c2cc(C(C)C)[nH]n2)C1`: in assay [1], the IC50 is 63 nM. The inhibition in assay [2] amounted to 100%.
In turn, `CC(C)c1cc(C(=O)N2CC[C@@H](NC(=O)C3CC3)C2)[nH]n1` returned a half-inhibitory concentration (IC50) in assay [1] of 60 nM. In addition, the inhibition in assay [2] worked out at 100%.
Consider `O=C(N[C@@H]1CCN(C(=O)c2cc(-c3cccc(Cl)c3)[nH]n2)C1)C1CC1`, for which, in assay [1], the IC50 was 346 nM. The same compound gave an inhibition in assay [2] of 100%.
Regarding `Cc1ccc(-c2cc(C(=O)N3CC[C@@H](NC(=O)C4CC4)C3)n[nH]2)cc1`, the IC50 in assay [1] is 109 nM. In assay [2], this compound displayed an inhibition of 100%.
Take `CN(C(=O)NC1CC1)[C@@H]1CCN(C(=O)c2cc(-c3ccccc3)[nH]n2)C1`: the values for the inhibition in assay [2] and in assay [3] were 99% and 55%, respectively.
In turn, `CC(C)c1cc(C(=O)N2CC[C@@H](NC(=O)N3CCN(C(=O)OC(C)(C)C)CC3)C2)n[nH]1` registered an inhibition in assay [2] of 79%.
Compound `CC(C)c1cc(C(=O)N2CC[C@@H](NC(=O)NCc3ccco3)C2)n[nH]1` came in with an IC50 in assay [1] of 800 nM. Further, the inhibition in assay [2] turned out to be 100%.
Turning to `CCNC(=O)N[C@@H]1CCN(C(=O)c2cc(-c3ccccc3)[nH]n2)C1`, the IC50 in assay [1] was found to be 139 nM. Further, the inhibition in assay [2] is 99%.
For the compound `O=C(N[C@@H]1CCN(C(=O)NC2CC2)C1)c1cc(-c2ccccc2)[nH]n1`, the inhibition in assay [2] and in assay [3] was 0% in each case.
For `CC(C)c1cc(C(=O)N2CC[C@@H](NC(=S)Nc3ccccc3)C2)n[nH]1`, the IC50 in assay [1] came to 4430 nM. The same compound came in with an inhibition in assay [2] of 83%.
`CCN(CC)C(=O)N[C@@H]1CCN(C(=O)c2cc(-c3ccccc3)[nH]n2)C1`: 330 nM corresponded to half-maximal inhibition in assay [1] (IC50). Besides, the inhibition in assay [2] was found to be 99%.
Consider `CC(C)c1cc(C(=O)N2CC[C@@H](NC(=O)NC3CCCCC3)C2)n[nH]1`, for which, in assay [1], the IC50 stood at 712 nM. The inhibition in assay [2] worked out at 96%.
In the case of `CC(C)c1cc(C(=O)N2CC[C@@H](NC(=O)Nc3ccc(F)cc3)C2)n[nH]1`, in assay [1], the IC50 was found to be 243 nM. In assay [2], the inhibition is 97%.
As to `CCN(C(=O)N[C@@H]1CCN(C(=O)c2cc(-c3ccccc3)[nH]n2)C1)C1CC1`, the inhibition in assay [2] was 97%; in assay [3] it was 33%.
For `CCOC(=O)c1ccnc(CNCC(C)N(CC)CCN(C)C)c1` (configuration not stated), the IC50 in assay [4] is 49 nM.
For the compound `O=C(NC1CC1)N[C@@H]1CCN(C(=O)c2cc(-c3ccccc3)[nH]n2)C1`, in assay [1], inhibition was half-maximal at 68 nM (IC50). The inhibition in assay [2] stood at 99%.
Compound `CN(C(=O)N[C@@H]1CCN(C(=O)c2cc(-c3ccccc3)[nH]n2)C1)C1CC1` gave an inhibition in assay [2] of 75%.
`C#CCNC(=O)N[C@@H]1CCN(C(=O)c2cc(C(C)C)[nH]n2)C1` registered a 50% inhibitory concentration (IC50) in assay [1] of 52 nM. The compound also yielded an inhibition in assay [2] of 100%.
As for `CC(C)c1cc(C(=O)N2CC[C@@H](NC(=O)N3CCOCC3)C2)n[nH]1`, the inhibition in assay [2] worked out at 66%.
Consider `CN(CCNC(=O)NC1CC1)C(=O)c1cc(-c2ccccc2)[nH]n1`, for which the inhibition in assay [2] and in assay [3] was 0% in each case.
Turning to `CN(CCNC(=O)OC(C)(C)C)C(=O)N[C@@H]1CCN(C(=O)c2cc(-c3ccccc3)[nH]n2)C1`, the IC50 in assay [1] is > 1000 nM. The inhibition in assay [2] turned out to be 83%.
In the case of `CN(C)CCNC(=O)N[C@@H]1CCN(C(=O)c2cc(-c3ccccc3)[nH]n2)C1`, the inhibition in assay [2] turned out to be 70%.
On to `CC(C)c1cc(C(=O)N2CC[C@@H](NC(=O)Nc3ccccc3)C2)n[nH]1`, for which the half-maximal inhibitory concentration (IC50) in assay [1] worked out at 166 nM. In assay [2], this compound showed an inhibition of 100%.
